Measured values reported in US7858621B2 (Amorepacific Corporation, priority 2006, dated 2010).

biological target: T1, vanilloid receptor (Rattus norvegicus, UniProt O35433); experiment: 45Ca influx test in cultured neonatal rat DRG neurons, inhibition of capsaicin response; type: cell-based; conditions: neonatal rat DRG neurons, capsaicin 0.5 μM, 45Ca influx; read-out: Antagonist Calcium Uptake Test (IC50)
T1 construct: DRG nerve cells from the primary culture of 2 days were equilibrated; endogenous in cells; host or cells: primary culture of dorsal root ganglion neurons from neonatal SD rats
Outline: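 Neonatal SD rat DRG neurons, cultured 2 days with NGF (200 ng/ml) and Ara-C, were washed in HEPES (10 mM, pH 7.4)-buffered Ca/Mg-free HBSS. Test compound was added with capsaicin (final 0.5 μM) and 45Ca (10 μCi/ml) for 10 min at room temperature; 45Ca uptake counted by scintillation after SDS elution.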

T1 sequence (O35433 whole entry): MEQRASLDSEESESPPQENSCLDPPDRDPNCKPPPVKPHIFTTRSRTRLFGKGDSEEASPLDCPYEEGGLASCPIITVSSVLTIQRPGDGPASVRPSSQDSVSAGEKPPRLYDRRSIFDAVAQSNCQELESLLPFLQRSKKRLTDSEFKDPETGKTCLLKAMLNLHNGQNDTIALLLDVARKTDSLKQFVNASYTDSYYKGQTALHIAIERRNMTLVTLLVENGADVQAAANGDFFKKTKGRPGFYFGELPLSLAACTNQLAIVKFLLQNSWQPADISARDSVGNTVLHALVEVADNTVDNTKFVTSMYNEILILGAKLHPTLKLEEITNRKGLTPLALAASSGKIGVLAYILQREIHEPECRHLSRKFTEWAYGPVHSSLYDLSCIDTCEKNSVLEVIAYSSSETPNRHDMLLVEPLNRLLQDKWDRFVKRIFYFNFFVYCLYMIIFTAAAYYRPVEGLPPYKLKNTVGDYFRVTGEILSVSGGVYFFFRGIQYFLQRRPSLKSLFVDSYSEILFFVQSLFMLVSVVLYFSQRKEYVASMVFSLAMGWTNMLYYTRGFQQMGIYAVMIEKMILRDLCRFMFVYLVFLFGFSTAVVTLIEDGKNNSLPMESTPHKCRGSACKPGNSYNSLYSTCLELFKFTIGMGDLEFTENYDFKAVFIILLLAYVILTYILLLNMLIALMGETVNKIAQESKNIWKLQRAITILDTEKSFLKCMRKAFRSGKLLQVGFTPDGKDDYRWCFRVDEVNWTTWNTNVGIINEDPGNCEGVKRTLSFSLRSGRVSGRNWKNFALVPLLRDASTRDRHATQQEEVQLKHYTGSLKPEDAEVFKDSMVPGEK

| Structure (SMILES) | IC50 [nM] |
| --- | --- |
| C#Cc1cc(CNC(=O)/C=C/c2ccc(Br)nc2)cc(F)c1NS(C)(=O)=O [Example 15, 3-(6-Bromo-pyridin-3-yl)-N-(3-ethynyl-5-fluoro-4-methanesulfonylamino-benzyl)-acrylamide] | 5900 |
| CS(=O)(=O)Nc1ccc(CNC(=O)COc2ccc(C(F)(F)F)nc2)cc1F [Example 32, N-(3-Fluoro-4-methanesulfonylamino-benzyl)-2-(6-trifluoromethyl-pyridin-3-yloxy)-acetamide] | > 10000 |
| C#Cc1cc(CNC(=O)/C=C/c2ccc(C(F)(F)F)nc2CCCOC)cc(F)c1NS(C)(=O)=O [Example 155, N-(3-Ethynyl-5-fluoro-4-methanesulfonylamino-benzyl)-3-[2-(3-methoxy-propyl)-6-trifluoromethyl-pyridin-3-yl]-acrylamide] | 780 |
| C#Cc1cc(CNC(=O)/C=C/c2ccc(C(F)(F)F)nc2Oc2ccc(F)cc2)cc(F)c1NS(C)(=O)=O [Example 82, N-(3-Ethynyl-5-fluoro-4-methanesulfonylamino-benzyl)-3-[2-(4-fluoro-phenoxy)-6-trifluoromethyl-pyridin-3-yl]-acrylamide] | 600 |
| COCC#Cc1nc(C(F)(F)F)ccc1/C=C/C(=O)NCc1ccc(NS(C)(=O)=O)c(F)c1 [Example 154, N-(3-Fluoro-4-methanesulfonylamino-benzyl)-3-[2-(3-methoxy-prop-1-ynyl)-6-trifluoromethyl-pyridin-3-yl]-acrylamide] | 2100 |
| CCCCc1nc(C(F)(F)F)ccc1C#CC(=O)NCc1cc(C)c(NS(C)(=O)=O)c(F)c1 [Example 273, 3-(2-Butyl-6-trifluoromethyl-pyridin-3-yl)-propynoic acid 3-fluoro-4-methanesulfonylamino-5-methyl-benzylamide] | 840 |
| C#Cc1cc(CNC(=O)/C=C/c2ccc(C(C)(C)C)nc2)cc(F)c1NS(C)(=O)=O [Example 3, 3-(6-tert-Butyl-pyridin-3-yl)-N-(3-ethynyl-5-fluoro-4-methanesulfonylamino-benzyl)-acrylamide] | 520 |
| C#Cc1cc(CNC(=O)/C=C/c2ccc(C(F)(F)F)nc2N2CCC(C(=O)OCC)CC2)cc(F)c1NS(C)(=O)=O [Example 110, AT-(3-Ethynyl-5-fluoro-4-methansulfonylamino-benzyl)-3-[2-(4-ethoxycarbonyl-piperid-1-yl)-6-trifluoromethyl-pyridin-3-yl]-acrylamide] | 580 |
| C#Cc1cc(CNC(=O)/C=C/c2ccc(C(F)(F)F)nc2C#CCN(CC)CC)cc(F)c1NS(C)(=O)=O [Example 190] | 2300 |
| CC(C)Sc1nc(C(F)(F)F)ccc1/C=C/C(=O)NCc1ccc(NS(C)(=O)=O)c(F)c1 [Example 178, N-(3-Fluoro-4-methanesulfonylamino-benzyl)-3-(2-isopropylthio-6-trifluoromethyl-pyridin-3-yl)-acrylamide] | 920 |
| CS(=O)(=O)Nc1ccc(CNC(=O)/C=C/c2cnc(Cl)cc2C(F)(F)F)cc1F [Example 53, 3-(6-Chloro-4-trifluoromethyl-pyridin-3-yl)-N-(3-fluoro-4-methanesulfonylamino-benzyl)-acrylamide] | > 10000 |
| C#Cc1cc(CNC(=O)/C=C/c2ccc(C(F)(F)F)nc2OCC2CC2)cc(F)c1NS(C)(=O)=O [Example 93, 3-(2-Cyclopropylmethoxy-6-trifluoromethyl-pyridin-3-yl)-N-(3-ethynyl-5-fluoro-4-methanesulfonylamino-benzyl)-acrylamide] | 360 |
| CS(=O)(=O)Nc1ccc(CNC(=O)/C=C/c2ccc(C(F)(F)F)nc2Cl)cc1F [Example 44, 3-(2-Chloro-6-trifluoromethyl-pyridin-3-yl)-N-(3-fluoro-4-methanesulfonylamino-benzyl)-acrylamide] | > 10000 |
| CCCS(=O)(=O)c1nc(C(F)(F)F)ccc1C=CC(=O)NCc1ccc(NS(C)(=O)=O)c(C)c1 [Example 216, N-(4-Methanesulfonylamino-3-methyl-benzyl)-3-[2-(propane-1-sulfonyl)-6-trifluoromethyl-pyridin-3-yl]-acrylamide] | 2000 |
| CCOC(=O)C1CCN(c2nc(C(F)(F)F)ccc2/C=C/C(=O)NCc2cc(F)c(NS(C)(=O)=O)c(C#N)c2)CC1 [Example 111, N-(3-Cyano-5-fluoro-4-methansulfonylamino-benzyl)-3-[2-(4-ethoxycarbonyl-piperid-1-yl)-6-trifluoromethyl-pyridin-3-yl]-acrylamide] | 820 |

The next compounds have a lower IC50 than those just listed; values first:

| IC50 [nM] | Structure (SMILES) |
| --- | --- |
| 42 | CCCCc1nc(C(F)(F)F)ccc1/C=C/C(=O)N[C@H](C)c1ccc(NS(C)(=O)=O)c(F)c1 [Example 193, (R)-3-(2-Butyl-6-trifluoromethyl-pyridin-3-yl)-N-[1-(3-fluoro-4-methanesulfonylamino-phenyl)-ethyl]-acrylamide] |
| 54 | CCCCCc1nc(C(F)(F)F)ccc1/C=C/C(=O)N[C@H](C)c1ccc(NS(C)(=O)=O)c(F)c1 [Example 215, (R)—N-[1-(3-Fluoro-4-methanesulfonylamino-phenyl)-ethyl]-3-(2-pentyl-6-trifluoromethyl)-pyridin-3-yl-acrylamide] |
| 80 | Cc1cc(CNC(=O)/C=C/c2ccc(C(F)(F)F)nc2C(C)C)ccc1NS(C)(=O)=O [Example 233, N-(4-methanesulfonylamino-3-methyl-benzyl)-3-(2-isopropyl-6-trifluoromethyl-pyridin-3-yl)-acrylamide] |
| 200 | CCCCc1nc(C(F)(F)F)ccc1/C=C/C(=O)NCc1ccc(NS(C)(=O)=O)c(F)c1 [Example 143, 3-(2-Butyl-6-trifluoromethyl-pyridin-3-yl)-N-(3-fluoro-4-methanesulfonylamino-benzyl)-acrylamide] |
| 140 | C#Cc1cc(CNC(=O)/C=C/c2ccc(C(C)(C)C)nc2Cl)cc(F)c1NS(C)(=O)=O [Example 51, 3-(6-tert-Butyl-2-chloro-pyridin-3-yl)-N-(3-ethynyl-5-fluoro-4-methanesulfonylamino-benzyl)-acrylamide] |
| 130 | CC(C)Nc1nc(C(F)(F)F)ccc1/C=C/C(=O)NCc1cc(F)c(NS(C)(=O)=O)c(F)c1 [Example 217, N-(3,5-Difluoro-4-methanesulfonylamino-benzyl)-3-(2-isopropylamino-6-trifluoromethyl-pyridin-3-yl)-acrylamide] |
| 220 | C[C@@H](NC(=O)/C=C/c1ccc(C(F)(F)F)nc1N1CCCCC1)c1ccc(NS(C)(=O)=O)c(F)c1 [Example 183, (R)—N-[1-(3-Fluoro-4-methanesulfonylamino-phenyl)-ethyl]-3-(2-piperid-1-yl-6-trifluoromethyl-pyridin-3-yl)-acrylamide] |
| 180 | C#Cc1cc(CNC(=O)/C=C/c2ccc(C(F)(F)F)nc2N2CCC(OC)C2)cc(F)c1NS(C)(=O)=O (stereo not drawn) [Example 85] |
| 120 | Cc1cc(CNC(=O)/C=C/c2ccc(C(F)(F)F)nc2N(C)c2ccccc2)ccc1NS(C)(=O)=O [Example 167, N-(4-methanesulfonylamino-3-methyl-benzyl)-3-[2-(methyl-phenylamino)-6-trifluoromethyl-pyridin-3-yl]-acrylamide] |
| 180 | C#Cc1cc(CNC(=O)/C=C/c2ccc(C(F)(F)F)nc2SCC)cc(F)c1NS(C)(=O)=O [Example 171, 3-(2-Ethylthio-6-trifluoromethyl-pyridin-3-yl)-N-(3-ethynyl-5-fluoro-4-methanesulfonylamino-benzyl)-acrylamide] |
| 310 | C#Cc1cc(CNC(=O)/C=C/c2ccc(C(F)(F)F)nc2-c2cccc(F)c2)cc(F)c1NS(C)(=O)=O [Example 120, N-(3-Ethynyl-5-fluoro-4-methanesulfonylamino-benzyl)-3-[2-(3-fluoro-phenyl)-6-trifluoromethyl-pyridin-3-yl]-acrylamide] |
| 300 | C=Cc1cc(CNC(=O)/C=C/c2ccc(C(F)(F)F)nc2N2CCOCC2)ccc1NS(C)(=O)=O [Example 6, N-(4-Methanesulfonylamino-3-vinyl-benzyl)-3-(2-morpholin-4-yl-6-trifluoromethyl-pyridin-3-yl)-acrylamide] |
| 21 | CCNc1nc(C(F)(F)F)ccc1/C=C/C(=O)NCc1cc(C)c(NS(C)(=O)=O)c(F)c1 [Example 258, 3-(2-Ethylamino-6-trifluoromethyl-pyridin-3-yl)-N-(3-fluoro-4-methanesulfonylamino-5-methyl-benzyl)-acrylamide] |
| 98 | CCCCCc1nc(C(F)(F)F)ccc1/C=C/C(=O)NCc1cc(C)c(NS(C)(=O)=O)c(F)c1 [Example 214, N-(3-Fluoro-4-methanesulfonylamino-5-methyl-benzyl)-3-(2-pentyl-6-trifluoromethyl)-pyridin-3-yl-acrylamide] |
| 150 | CCCCc1nc(C(F)(F)F)ccc1C#CC(=O)N[C@H](C)c1cc(F)c(NS(C)(=O)=O)c(F)c1 [Example 262, 3-(2-Butyl-6-trifluoromethyl-pyridin-3-yl)-propynoic acid [1-(3,5-difluoro-4-methanesulfonylamino-phenyl)-ethyl]-amide] |
| 54 | CCC(C)Nc1nc(C(F)(F)F)ccc1/C=C/C(=O)NCc1cc(C)c(NS(C)(=O)=O)c(F)c1 (stereo not drawn) [Example 130, 3-(2-sec-Butylamino-6-trifluoromethyl-pyridin-3-yl)-N-(3-fluoro-4-methanesulfonylamino-5-methyl-benzyl)-acrylamide] |
| 83 | Cc1cc(CNC(=O)/C=C/c2ccc(C(F)(F)F)nc2CC(C)C)cc(F)c1NS(C)(=O)=O [Example 164, N-(3-Fluoro-4-methanesulfonylamino-5-methyl-benzyl)-3-(2-isobutyl-6-trifluoromethyl-pyridin-3-yl)-acrylamide] |
| 24 | CC(C)Cc1nc(C(F)(F)F)ccc1/C=C/C(=O)N[C@H](C)c1ccc(NS(C)(=O)=O)c(F)c1 [Example 175, (R)—N-[1-(3-Fluoro-4-methanesulfonylamino-phenyl)-ethyl]-3-(2-isobutyl-6-trifluoromethyl-pyridin-3-yl)-acrylamide] |
